The source of these data is patent US9833497B2, “Human originated EGF domain proteins and use of the same” (CHENGDU SOURCEBIO LIMITED-LIABILITY COMPANY, priority 2013, dated 2017).

What all share (assay type): cell-based
For one test, the system named is E. coli DH5α. Kind of test: Antibacterial activity: MIC and growth curve against E. coli DH5α in 96-well plate. The note with it: minimal inhibitory concentration against E. coli DH5α; 96-well plate, 5×10^5 CFU/mL, 37° C., judged after 8 h. The gist of the method:
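Log-phase DH5α (OD600 about 0.5, 37° C, 185 rpm in LB) was pelleted, resuspended in fresh LB and seeded at 5×10^5 CFU/mL with recombinant protein at 50, 25 and 12.5 μg/mL (two-fold series), in triplicate. Plates were shaken at 175 rpm, 37° C, and OD600 was read every 30 min. MIC was the lowest concentration with no growth.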

The next test concerns E. coli BL21. Briefly: MIC against Gram-negative bacteria: E. coli BL21. The following applies: 5×10^5 CFU/mL. The gist of the method: (§1)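 MIC = lowest concentration of recombinant protein showing no growth. Test proteins: purified human-derived EGF domain proteins, two-fold dilution series, three wells per concentration; inoculum 5×10^5 CFU/mL in LB; incubation 37° C with shaking at 175 rpm.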

In a further test the test system is Pseudomonas aeruginosa. Briefly: MIC against Gram-negative bacteria: Pseudomonas aeruginosa. The following applies: 5×10^5 CFU/mL. Put shortly:
as §1

The test system of a further test is Klebsiella pneumonia. Briefly: MIC against Gram-negative bacteria: Klebsiella pneumonia. The note with it: 5×10^5 CFU/mL. Put shortly: as §1
Another test deals with Enterobacter cloacae. Briefly: MIC against Gram-negative bacteria: Enterobacter cloacae. The following applies: 5×10^5 CFU/mL. The gist of the method: as §1
The next test deals with Aeromonas hydrophila. Kind of test: MIC against Gram-negative bacteria: Aeromonas hydrophila. The following applies: 5×10^5 CFU/mL. The gist of the method:
as §1

A further test concerns Citrobacter diversus. Kind of test: MIC against Gram-negative bacteria: Citrobacter diversus. The note with it: 5×10^5 CFU/mL. Put shortly:
as §1

Another test concerns Moraxella catarrhalis. Briefly: MIC against Gram-negative bacteria: Moraxella catarrhalis. The following applies: 5×10^5 CFU/mL. The gist of the method:
as §1

Another test has as its system Proteus mirabilis. Kind of test: MIC against Gram-negative bacteria: Proteus mirabilis. The following applies: 5×10^5 CFU/mL. The gist of the method: as §1
The next test has as its system Proteus vulgaris. Kind of test: MIC against Gram-negative bacteria: Proteus vulgaris. The following applies: 5×10^5 CFU/mL. The gist of the method: as §1
The subject of another test is Serratia marcescens. Kind of test: MIC against Gram-negative bacteria: Serratia marcescens. The following applies: 5×10^5 CFU/mL. The gist of the method: as §1
Setting [1] is: 10 h cultivation at 37° C., two-fold serial dilution.
Where [2] appears, read: P. aeruginosa, 10 h cultivation at 37° C.
Where [3] appears, read: K. pneumonia, 10 h cultivation at 37° C.
[4] abbreviates: E. cloacae, 10 h cultivation at 37° C.
The mark [5] stands for this setting: A. hydrophila, 10 h cultivation at 37° C.
Setting [6] is: C. diversus, 10 h cultivation at 37° C.
The mark [7] stands for this setting: M. catarrhalis, 10 h cultivation at 37° C.
Where [8] appears, read: P. mirabilis, 10 h cultivation at 37° C.
The mark [9] stands for this setting: P. vulgaris, 10 h cultivation at 37° C.
Setting [10] is: S. marcescens, 10 h cultivation at 37° C.

Broadly, the MIC is the lowest concentration that inhibits growth of the organism. The low end stands for a more susceptible organism, the high end for a less susceptible organism. “PRT1192 (DIDECASNPCAAGGTCVDQVDGFECICPEQWVGATCQ; listed as Homo sapiens)”: the MIC with E. coli DH5α is 25 µg/mL. In addition, in the test with E. coli BL21 (setting [1]), the “MIC E. coli BL21” value worked out at 12.5 µg/mL. For the same substance, in the test on Pseudomonas aeruginosa (setting [1]), the “MIC P. aeruginosa” value was determined as 25 µg/mL. Also, the “MIC K. pneumonia” value against Klebsiella pneumonia (setting [1]) stood at 50 µg/mL. In the test on Enterobacter cloacae (setting [1]), the “MIC E. cloacae” value is 25 µg/mL. Besides, the “MIC A. hydrophila” value against Aeromonas hydrophila (setting [1]) was found to be 12.5 µg/mL. Further, in the test on Citrobacter diversus (setting [1]), the “MIC C. diversus” value came out at 50 µg/mL. In addition, the “MIC M. catarrhalis” value against Moraxella catarrhalis (setting [1]) was found to be 25 µg/mL. Further, the “MIC P. mirabilis” value against Proteus mirabilis (setting [1]) came out at 12.5 µg/mL. Also, in the test on Proteus vulgaris (setting [1]), the “MIC P. vulgaris” value was 50 µg/mL. In the test with Serratia marcescens (setting [1]), the “MIC S. marcescens” value is 25 µg/mL.
In the case of “PRT106 (RSVCDLFPSYCHNGGQCYLVENIGAFCRCNTQDYIWHKGMRCE; listed as Homo sapiens)”, the MIC in the test with E. coli DH5α is 12.5 µg/mL. The “MIC (μg/mL) E. coli BL21” value against E. coli BL21 (96-well plate, 37° C., 10 h) is 50 µg/mL. Further, the “MIC (μg/mL) P. aeruginosa” value with Pseudomonas aeruginosa (Pseudomonas aeruginosa, 96-well plate, 37° C., 10 h) was found to be 12.5 µg/mL. Also, in the test on Klebsiella pneumonia (Klebsiella pneumonia, 96-well plate, 37° C., 10 h), the “MIC (μg/mL) K. pneumonia” value worked out at 50 µg/mL. Moreover, the “MIC (μg/mL) E. cloacae” value against Enterobacter cloacae (Enterobacter cloacae, 96-well plate, 37° C., 10 h) stood at 25 µg/mL. Further, in the test with Aeromonas hydrophila (Aeromonas hydrophila, 96-well plate, 37° C., 10 h), the “MIC (μg/mL) A. hydrophila” value was 12.5 µg/mL. In the test with Citrobacter diversus (Citrobacter diversus, 96-well plate, 37° C., 10 h), the “MIC (μg/mL) C. diversus” value came out at 25 µg/mL. The “MIC (μg/mL) M. catarrhalis” value with Moraxella catarrhalis (Moraxella catarrhalis, 96-well plate, 37° C., 10 h) came to 12.5 µg/mL. In the test with Proteus mirabilis (Proteus mirabilis, 96-well plate, 37° C., 10 h), the “MIC (μg/mL) P. mirabilis” value worked out at 12.5 µg/mL. Moreover, the “MIC (μg/mL) P. vulgaris” value in the test on Proteus vulgaris (Proteus vulgaris, 96-well plate, 37° C., 10 h) turned out to be 12.5 µg/mL. The “MIC (μg/mL) S. marcescens” value against Serratia marcescens (Serratia marcescens, 96-well plate, 37° C., 10 h) turned out to be 12.5 µg/mL.
In the test with E. coli DH5α, “PRT181 (RADPCAARPCAHGGRCYAHFSGLVCACAPGYMGARCE; listed as Homo sapiens)” gave an MIC of 25 µg/mL. Further, the “MIC (μg/mL) E. coli BL21” value against E. coli BL21 (10 h cultivation at 37° C.) worked out at 50 µg/mL. Further, in the test with Pseudomonas aeruginosa (setting [2]), the “MIC (μg/mL) P. aeruginosa” value is 25 µg/mL. In addition, the “MIC (μg/mL) K. pneumonia” value against Klebsiella pneumonia (setting [3]) stood at 12.5 µg/mL. The “MIC (μg/mL) E. cloacae” value with Enterobacter cloacae (setting [4]) is 25 µg/mL. The “MIC (μg/mL) A. hydrophila” value in the test with Aeromonas hydrophila (setting [5]) was 50 µg/mL. The “MIC (μg/mL) C. diversus” value in the test with Citrobacter diversus (setting [6]) is 25 µg/mL. Moreover, the “MIC (μg/mL) M. catarrhalis” value against Moraxella catarrhalis (setting [7]) stood at 12.5 µg/mL. Further, the “MIC (μg/mL) P. mirabilis” value against Proteus mirabilis (setting [8]) came to 25 µg/mL. Moreover, in the test on Proteus vulgaris (setting [9]), the “MIC (μg/mL) P. vulgaris” value turned out to be 50 µg/mL. Further, in the test on Serratia marcescens (setting [10]), the “MIC (μg/mL) S. marcescens” value worked out at 25 µg/mL.
On to “PRT800 (GRVCQCQNGASCDHISGKCTCRTGFTGQHCE; listed as Homo sapiens)”, for which the MIC in the test on E. coli DH5α was 25 µg/mL. In addition, the “MIC (μg/mL) E. coli BL21” value in the test with E. coli BL21 (10 h cultivation at 37° C.) was 50 µg/mL. In addition, in the test with Pseudomonas aeruginosa (setting [2]), the “MIC (μg/mL) P. aeruginosa” value is 25 µg/mL. Moreover, in the test on Klebsiella pneumonia (setting [3]), the “MIC (μg/mL) K. pneumonia” value amounted to 12.5 µg/mL. Besides, the “MIC (μg/mL) E. cloacae” value in the test on Enterobacter cloacae (setting [4]) came out at 50 µg/mL. In the test on Aeromonas hydrophila (setting [5]), the “MIC (μg/mL) A. hydrophila” value was determined as 12.5 µg/mL. Moreover, the “MIC (μg/mL) C. diversus” value against Citrobacter diversus (setting [6]) turned out to be 50 µg/mL. Besides, the “MIC (μg/mL) M. catarrhalis” value in the test on Moraxella catarrhalis (setting [7]) stood at 12.5 µg/mL. In addition, the “MIC (μg/mL) P. mirabilis” value in the test with Proteus mirabilis (setting [8]) was 12.5 µg/mL. In addition, the “MIC (μg/mL) P. vulgaris” value in the test on Proteus vulgaris (setting [9]) turned out to be 50 µg/mL. Further, in the test on Serratia marcescens (setting [10]), the “MIC (μg/mL) S. marcescens” value worked out at 25 µg/mL.
On to “PRT821 (DVDECRTHNGGCQHRCVNTPGSYLCECKPGFRLHTDSRTCL; listed as Homo sapiens)”, for which, in the test with E. coli DH5α, the MIC came to 12.5 µg/mL. In addition, the “MIC (μg/mL) E. coli BL21” value in the test on E. coli BL21 (10 h cultivation at 37° C.) was determined as 12.5 µg/mL. The “MIC (μg/mL) P. aeruginosa” value against Pseudomonas aeruginosa (setting [2]) amounted to 12.5 µg/mL. Also, the “MIC (μg/mL) K. pneumonia” value with Klebsiella pneumonia (setting [3]) was determined as 25 µg/mL. Further, the “MIC (μg/mL) E. cloacae” value with Enterobacter cloacae (setting [4]) stood at 25 µg/mL. The “MIC (μg/mL) A. hydrophila” value against Aeromonas hydrophila (setting [5]) came to 50 µg/mL. Also, the “MIC (μg/mL) C. diversus” value in the test on Citrobacter diversus (setting [6]) came out at 25 µg/mL. In addition, the “MIC (μg/mL) M. catarrhalis” value against Moraxella catarrhalis (setting [7]) stood at 12.5 µg/mL. Also, the “MIC (μg/mL) P. mirabilis” value with Proteus mirabilis (setting [8]) was found to be 50 µg/mL. Besides, the “MIC (μg/mL) P. vulgaris” value against Proteus vulgaris (setting [9]) was determined as 12.5 µg/mL. The “MIC (μg/mL) S. marcescens” value with Serratia marcescens (setting [10]) came to 50 µg/mL.
